Laboratory results from patent US6710017B2, “Compositions and methods for controlling algae in recirculating water systems” (Avecia, Inc., priority 2000, dated 2004).
Values after ≈ are worked out from the molar mass of the structure shown. Where two headings read alike, the source gives them in different places.

Key:
[1] = Margin of exposure versus NOEL (estimated total daily dose to a child in a swimming pool); details: for Margin of Exposure vs NOEL: agricultural fungicides, Table B; for Margin of Exposure vs NOEL (Target > 100): herbicides, Table A, ratio of NOEL to estimated daily dose, 10 ppm in pool water, child 22 kg, 3 hours per day
Procedure: The herbicide preferably has a margin of exposure versus no observed effect level (“NOEL”) value of greater than 10, more preferably greater than 50, especially greater than 80, and more especially greater than 99. The margin of exposure versus NOEL is determined by estimating the total daily dose of the herbicide to a child in a swimming pool and determining the ratio of the NOEL to this. The total daily exposure may be estimated as follows. Oral exposure is estimated by assuming that the swimmer is in the water 3 hours per day, and that the swimmer ingests 50 milliliters of pool water per hour of swimming. It is also assumed that the herbicide will be present in the pool water at a concentration of 10 parts per million, equivalent to 10 milligrams per liter of pool water. The daily oral exposure is therefore estimated as the product of the swimming duration, the ingestion rate, and the concentration in the pool water. Dermal exposure is estimated by assuming the swimmer is in the water 3 hours per day, that the total body surface area, 8800 square centimeters, is immersed in the water, and that the herbicide permeates the skin at a rate, expressed in centimeters per hour, predicted by a model for skin permeation based on chemical structure, the Skinperm model, developed by W. F. ten Berge. A short description of the Skinperm model, can be accessed at: http://home.wxs.nl/˜wtberge/, which is incorporated herein by reference. The daily dermal exposure is then estimated as the product of the permeation rate, the concentration of the herbicide in the pool water (expressed in milligrams per cubic centimeter), the swimming duration, and the total body surface area. The total daily exposure is estimated as the sum of the daily oral and daily dermal exposure. The daily dose, expressed in milligrams per kilogram bodyweight per day, is then estimated as the total daily exposure divided by an assumed body weight of 22 kilograms.

[2] = agricultural fungicides, Table B
[3] = water, cited from earlier work
[4] = herbicides, Table A; 10 ppm in pool water, child 22 kg
Procedure: The margin of exposure versus NOEL is determined by estimating the total daily dose of the herbicide to a child in a swimming pool and determining the ratio of the NOEL to this. The total daily exposure may be estimated as follows. Oral exposure is estimated by assuming that the swimmer is in the water 3 hours per day, and that the swimmer ingests 50 milliliters of pool water per hour of swimming. It is also assumed that the herbicide will be present in the pool water at a concentration of 10 parts per million, equivalent to 10 milligrams per liter of pool water. The daily oral exposure is therefore estimated as the product of the swimming duration, the ingestion rate, and the concentration in the pool water. Dermal exposure is estimated by assuming the swimmer is in the water 3 hours per day, that the total body surface area, 8800 square centimeters, is immersed in the water, and that the herbicide permeates the skin at a rate, expressed in centimeters per hour, predicted by a model for skin permeation based on chemical structure, the Skinperm model, developed by W. F. ten Berge. A short description of the Skinperm model, can be accessed at: http://home.wxs.nl/˜wtberge/, which is incorporated herein by reference. The daily dermal exposure is then estimated as the product of the permeation rate, the concentration of the herbicide in the pool water (expressed in milligrams per cubic centimeter), the swimming duration, and the total body surface area. The total daily exposure is estimated as the sum of the daily oral and daily dermal exposure. The daily dose, expressed in milligrams per kilogram bodyweight per day, is then estimated as the total daily exposure divided by an assumed body weight of 22 kilograms.
The margin of exposure versus RfD is determined by estimating the total daily dose of the herbicide to a child in a swimming pool, as described above, and determining the ratio of the RfD to this (i.e. margin of exposure/RfD).

mustard algae [5] = test: Remedial laboratory study on algae, change in turbidity; details: for Change in Turbidity at active agent (ppm) five days post treatment: 5 ppm: 5 ppm active ingredient; for Change in Turbidity at active agent (ppm) five days post treatment: 5 ppm / Change in Turbidity at active agent (ppm) five days post treatment: 10 ppm: initial absorbance 0.10; for Change in Turbidity at active agent (ppm) five days post treatment: 10 ppm: 10 ppm active ingredient; for water turbidity: indicating killing of the mustard algae
mustard algae [6] = test: Preventative laboratory study on algae, visual growth score
[7] = agricultural fungicides, Table B

Structure (SMILES) | Margin of Exposure vs NOEL [1] | Margin of Exposure vs. RfD [2] | Solubility [3, 7] [mg/L] | Change in Turbidity at active agent (ppm) five days post treatment: 5 ppm (mustard algae [5]; Table 2) | Change in Turbidity at active agent (ppm) five days post treatment: 10 ppm (mustard algae [5]; Table 2) | comments (Remedial Algae Control) (mustard algae [5]; Table 2) | also measured
N#Cc1c[nH]cc1-c1cccc2c1OC(F)(F)O2 [Fludioxonil, 4-(2,2-difluoro-1,3-bezodioxol-4-yl)-1Hpyrrole-3-carbonitrile] | 44 | 0.4 |  |  |  |  | 
CCCOC(=O)NCCCN(C)C.Cl [Propamocarb, Propyl 3-(dimethylamino)propylcarbamate-hydrochloride] | 438 | 1.4 |  |  |  |  | 
C=CCOC(Cn1ccnc1)c1ccc(Cl)cc1Cl (stereo not shown) [Imazalil, 1-[2-(2,4-dichlorophenyl)-2-(2-propenyloxy)ethyl]-1H-imidazole] | 17 | 0.2 | 1400 (≈ 4710 µM) |  |  |  | 
CC(C)N1C(=O)c2ccccc2NS1(=O)=O [Bentazon, 3-isopropyl-1H-2,1,3-benzothiadiazin-4(3H)-one 2,2-dioxide] |  |  |  |  |  |  | Margin of Exposure vs NOEL (Target > 100) [1]: 41; Solubility ([3]; herbicides, Table A): 2300 mg/1; Margin of Exposure vs. RfD (Target > 1) [4]: 0.4
CC1=C(C(=O)Nc2ccccc2)SCCO1 [Carboxin, 5,6-dihydro-2-methyl-N-phenyl-1,4-oxathiin-3-carboxamide] | 116 | 1.2 |  | 0.01 | −0.01 | algicidal activity | water turbidity (mustard algae [5]; Table 2): decreased significantly
CC(C)(C)C(O)(CCc1ccc(Cl)cc1)Cn1cncn1 (stereo not drawn) [Tebuconazole, H-1,2,4-triazole-1-ethanol-alpha-[2-(4-chlorophenyl)-ethyl]-alpha-(1,1-dimethylethyl)] | 13 | 0.4 |  |  |  |  | Score @ 10 ppm (mustard algae [6]; 10 ppm, visual score 0 to 4, 10 days, Table 3): 2; Score @ 15 ppm active ingredient (mustard algae [6]; 15 ppm, visual score 0 to 4, 10 days, Table 3): 1; Comments (Preventive Algae Control) (mustard algae [6]; Table 3, at 15 ppm): very little growth; Turbidity @ 5 ppm active ingredient (Change in Turbidity at five days post treatment) (mustard algae [5]; 5 ppm, Table 4): +0.09; Turbidity @ 10 ppm active ingredient (Change in Turbidity at five days post treatment) (mustard algae [5]; 10 ppm, Table 4): +0.24; comments (Remedial Algae Control) (mustard algae [5]; Table 4): more effective
CC(C)(C)C(O)C(Oc1ccc(Cl)cc1)n1cncn1 (stereo not drawn) [Triademenol, Beta-(4-chlorophenoxy)-alpha-(1,1-dimethylethyl)-1-1H-1,2,4-triazole-1-ethanol] | 50 | 0.5 | 260 (≈ 879 µM) |  |  |  | 
CC(=O)O.CCCCCCCCCCCCNC(=N)N [Dodine, 1-dodecylguanidine acetate] | 17 | 0.02 |  | −0.03 | −0.04 | algicidal activity | water turbidity (mustard algae [5]; Table 2): decreased significantly
COCC(=O)N(c1c(C)cccc1C)C(C)C(=O)OC (racemic) [Metalaxyl, N-(2,6-dimethylphenyl)-N-(methoxyacetyl)-DL-alaninemethyl ester] | 98 | 1 | 8400 (≈ 30100 µM) |  |  |  | 
Nc1cnn(-c2ccccc2)c(=O)c1Cl [Chloridazon, 5-amino-4-chloro-2-phenyl-3(2H)-pyridazinone] |  |  |  | +0.15 | +0.05 | Algistatic. More | Solubility ([3]; herbicides, Table A): 340 mg/1
COC(=O)c1c(Cl)nn(C)c1S(=O)(=O)NC(=O)Nc1nc(OC)cc(OC)n1 [Halosulfuronmethyl, Methyl 5-{[(4,6-dimethoxy-2-pyrimidinyl)amino]carbonylaminosulfonyl}-3-chloro-1-methyl-1H-pyrazole-4-carboxylate] |  |  |  |  |  |  | Margin of Exposure vs NOEL (Target > 100) [1]: 133; Solubility ([3]; herbicides, Table A): 15 mg/1; Margin of Exposure vs. RfD (Target > 1) [4]: 1.3
CC(C)(C)C(=O)C(Oc1ccc(Cl)cc1)n1cncn1 (stereo not shown) [Triademefon, 1-(4-chlorophenoxy)-3,3-dimethyl-1-(1H-1,2,4-triazol-1-yl)-2-butanone] | 104 | 0.4 | 260 (≈ 885 µM) |  |  |  | 
COC(=O)c1cccc(C)c1S(=O)(=O)NC(=O)Nc1nc(OCC(F)(F)F)nc(N(C)C)n1 [Triflusulfuronmethyl] |  |  |  | +0.04 | +0.03 | Algistatic. | Margin of Exposure vs NOEL (Target > 100) [1]: 33; Solubility ([3]; herbicides, Table A): 110-11000 mg/1
Cc1[nH]c(=O)n(C(C)(C)C)c(=O)c1Cl [Terbacil, 3-tert-Butyl-5-chloro-6-methyluracil] |  |  |  | −0.02 | −0.02 | algicidal activity | Margin of Exposure vs NOEL (Target > 100) [1]: 16; Score @ ppm active agent: 0 (mustard algae [6]; 0 ppm, visual score 0 to 4, 10 days, 27° C.): 0; Score @ ppm active agent: 10 (mustard algae [6]; 10 ppm, visual score 0 to 4, 10 days, 27° C.): 0; Score @ ppm active agent: 15 (mustard algae [6]; 15 ppm, visual score 0 to 4, 10 days, 27° C.): 0; water turbidity (mustard algae [5]; Table 2): decreased significantly; Margin of Exposure vs. RfD (Target > 1) [4]: 0.17
CO/C=C(/C(=O)OC)c1ccccc1Oc1cc(Oc2ccccc2C#N)ncn1 [Azoxystrobin, Methyl (E)-2-2-6-(2-cyanophenoxy)pyrimidin-4-yloxyphenyl-3-methoxyacrylate] | 240 | 2.4 | 10 (≈ 24.8 µM) |  |  |  | 
CCSC(=O)N(CC)C1CCCCC1 [Cycloate, S-ethyl cyclohexyl(ethyl)thiocarbamate] | 1 | 0.001 |  | 0.00 | −0.01 | algicidal activity | water turbidity (mustard algae [5]; Table 2): decreased significantly
CCCCc1c(C)nc(NCC)[nH]c1=O [Ethirimol, 5-butyl-2-ethylamino-6-methylpyrimidin-4-ol] |  |  | 250 (≈ 1190 µM) |  |  |  | 
